Data published in ChEMBL document CHEMBL1201862, “PubChem BioAssay data set” (2004).
Calls of active or inactive are those of the source.

How the values were obtained:
Escherichia coli = experiment: microbe, parasite or virus in culture
BJ [1] = experiment: cytotoxicity toward BJ-TERT fibroblasts, dose response, cell-based, RAS-independent, luminescence (AID 1933); format: functional; conditions: Homo sapiens
BJ [2] = experiment: cells; format: functional, cell-based; conditions: Homo sapiens, read-out: EC50
[3] = growth suppression of PTEN-null colon cells, dose response, cell-based, HCT116 PTEN knockout (AID 1047); format: functional;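 further: HCT116 colon tumor cells with PTEN knocked out; cells exposed to compound for 60 hours before readout; potency for loss of cell viability measured by luminescence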
[4] = growth suppression of beta-catenin-knockout colon cells, dose response, cell-based, HCT116, human colon tumor (AID 1045); format: functional;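 further: HCT116 colon tumor cells with beta catenin knocked out; cells exposed to compound for 60 hours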
BJ [5] = experiment: cytotoxicity toward BJ-TERT-LT-ST fibroblasts, dose response, cell-based, RAS-independent, luminescence (AID 1935); format: functional; conditions: Homo sapiens;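 further: BJ fibroblasts immortalized with TERT plus LT and ST oncogenes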
[6] = cytotoxicity toward DRD oncogenic fibroblasts, dose response, cell-based, non-viral oncogenic, luminescence (AID 1934); format: functional; conditions: Homo sapiens
[7] = cytotoxicity in HEK-293T cells, dose response, cytotoxicity control for TCR NF-kB inhibitor project, luminescence, T-cell screen hits (AID 489026); format: functional, cell-based;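 further: cells exposed to compound about 14 hours before the viability readout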
Cytochrome P450 3A4 = Cytochrome P450 3A4 (Homo sapiens, UniProt P08684);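 further: CYP3A4 tested as one member of a cytochrome P450 panel screen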
[8] = biological target: T1, Heat shock factor protein 1 (Mus musculus, UniProt P38532); experiment: inhibition of MG132-induced HSE-luciferase signal, confirmation, cell-based, NIH3T3, luminescence, dose retest (AID 2382); format: functional;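 further: NIH3T3 fibroblasts with HSF1-driven luciferase reporter stressed by proteasome inhibitor MG132; luminescence from HSF1-driven luciferase expression after 8 hours of MG132 stress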
T1 sequence (P38532 whole entry): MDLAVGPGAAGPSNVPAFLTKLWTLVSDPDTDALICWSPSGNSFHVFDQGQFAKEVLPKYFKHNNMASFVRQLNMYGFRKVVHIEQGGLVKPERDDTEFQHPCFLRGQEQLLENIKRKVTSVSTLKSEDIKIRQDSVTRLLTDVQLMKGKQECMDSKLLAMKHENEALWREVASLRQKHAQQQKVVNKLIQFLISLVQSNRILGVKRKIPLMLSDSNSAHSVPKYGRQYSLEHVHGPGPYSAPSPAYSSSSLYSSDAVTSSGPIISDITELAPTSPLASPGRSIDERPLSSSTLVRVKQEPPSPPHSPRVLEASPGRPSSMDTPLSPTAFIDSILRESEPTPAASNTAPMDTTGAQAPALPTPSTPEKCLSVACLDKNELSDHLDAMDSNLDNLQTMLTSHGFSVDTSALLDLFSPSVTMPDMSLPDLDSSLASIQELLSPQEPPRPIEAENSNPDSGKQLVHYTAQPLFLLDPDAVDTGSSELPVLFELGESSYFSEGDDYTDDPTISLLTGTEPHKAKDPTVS

Paired box protein Pax-8 = Paired box protein Pax-8 (Homo sapiens, UniProt Q06710); experiment: inhibitors of PAX8-driven TPO luciferase reporter, dose response, RMG-I cells, cherry-pick (AID 687027); format: functional, cell-based;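 further: luciferase reporter driven by Pax8 target thyroperoxidase promoter measured by SteadyGlo luminescence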
[9] = HEp-2 cell cytotoxicity, dose response, cytotoxicity control for RSV inhibitor project, HTS (AID 2410); format: functional; conditions: human respiratory syncytial virus
[10] = biological target: T2, Low molecular weight phosphotyrosine protein phosphatase (Homo sapiens, UniProt P24666); format: functional; conditions: read-out: IC50_Mean;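 further: Dose-response confirmation assay measuring inhibition of LMPTP enzyme activity by fluorescence intensity read-out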
T2 sequence (P24666 whole entry): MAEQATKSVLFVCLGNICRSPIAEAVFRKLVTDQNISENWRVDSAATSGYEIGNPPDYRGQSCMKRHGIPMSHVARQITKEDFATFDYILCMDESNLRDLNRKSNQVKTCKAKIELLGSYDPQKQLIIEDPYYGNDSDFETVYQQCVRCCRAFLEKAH

[11] = biological target: T3, Corticotropin-releasing factor receptor 2/Corticotropin-releasing factor-binding protein (Homo sapiens, UniProt P24387+Q13324); experiment: Dose Response confirmation of uHTS hits for small molecule antagonists of the CRF-binding protein and CRF-R2 receptor complex.; format: functional; conditions: read-out: IC50_Mean
T3 sequence (Q13324 whole entry): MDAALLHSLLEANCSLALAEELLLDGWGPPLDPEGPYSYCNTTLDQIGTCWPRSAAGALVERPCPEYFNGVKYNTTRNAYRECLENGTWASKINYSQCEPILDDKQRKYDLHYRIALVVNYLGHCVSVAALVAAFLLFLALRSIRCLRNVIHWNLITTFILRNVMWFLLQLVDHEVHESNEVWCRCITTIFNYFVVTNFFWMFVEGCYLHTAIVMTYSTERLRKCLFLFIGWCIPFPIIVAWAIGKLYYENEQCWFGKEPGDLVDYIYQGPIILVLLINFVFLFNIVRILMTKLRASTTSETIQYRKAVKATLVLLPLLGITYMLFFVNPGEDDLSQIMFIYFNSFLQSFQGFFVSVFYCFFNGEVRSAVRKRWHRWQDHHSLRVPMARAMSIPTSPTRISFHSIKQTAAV
T3 sequence (P24387 whole entry): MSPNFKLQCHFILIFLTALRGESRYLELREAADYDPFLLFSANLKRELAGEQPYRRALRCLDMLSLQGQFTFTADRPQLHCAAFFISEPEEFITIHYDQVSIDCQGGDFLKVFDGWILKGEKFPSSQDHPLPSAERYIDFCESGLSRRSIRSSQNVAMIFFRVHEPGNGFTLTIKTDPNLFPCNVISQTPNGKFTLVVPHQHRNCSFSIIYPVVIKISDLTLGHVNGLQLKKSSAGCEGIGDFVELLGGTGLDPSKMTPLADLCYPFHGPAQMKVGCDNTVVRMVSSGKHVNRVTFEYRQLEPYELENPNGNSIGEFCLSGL

[12] = biological target: T3, Corticotropin-releasing factor receptor 2/Corticotropin-releasing factor-binding protein; experiment: activators of CRF receptor 2 with binding protein – uHTS hits, confirmation (AID 602473); format: functional; conditions: read-out: EC50_Mean
[13] = CRF-BP/CRF-R2 complex antagonists, dose response, cell-based, uHTS hits, 384-well (AID 651639); format: functional, Homo sapiens; conditions: read-out: IC50_Mean

Chain of Cytochrome P450 3A4 (P08684 whole entry): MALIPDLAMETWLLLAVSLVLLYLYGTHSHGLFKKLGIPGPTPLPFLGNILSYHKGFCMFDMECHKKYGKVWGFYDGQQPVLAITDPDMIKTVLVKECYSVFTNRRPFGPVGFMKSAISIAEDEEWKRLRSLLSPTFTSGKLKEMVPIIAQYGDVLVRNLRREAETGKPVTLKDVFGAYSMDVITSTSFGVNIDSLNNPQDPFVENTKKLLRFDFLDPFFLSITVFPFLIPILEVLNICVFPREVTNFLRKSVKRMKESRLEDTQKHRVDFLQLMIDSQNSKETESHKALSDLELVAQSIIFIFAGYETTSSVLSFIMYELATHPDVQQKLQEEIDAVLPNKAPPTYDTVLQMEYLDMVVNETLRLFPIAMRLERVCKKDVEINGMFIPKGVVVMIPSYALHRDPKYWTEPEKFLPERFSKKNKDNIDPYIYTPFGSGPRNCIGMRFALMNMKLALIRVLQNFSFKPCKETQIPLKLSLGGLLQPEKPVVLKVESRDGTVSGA
Chain of Paired box protein Pax-8 (Q06710 whole entry): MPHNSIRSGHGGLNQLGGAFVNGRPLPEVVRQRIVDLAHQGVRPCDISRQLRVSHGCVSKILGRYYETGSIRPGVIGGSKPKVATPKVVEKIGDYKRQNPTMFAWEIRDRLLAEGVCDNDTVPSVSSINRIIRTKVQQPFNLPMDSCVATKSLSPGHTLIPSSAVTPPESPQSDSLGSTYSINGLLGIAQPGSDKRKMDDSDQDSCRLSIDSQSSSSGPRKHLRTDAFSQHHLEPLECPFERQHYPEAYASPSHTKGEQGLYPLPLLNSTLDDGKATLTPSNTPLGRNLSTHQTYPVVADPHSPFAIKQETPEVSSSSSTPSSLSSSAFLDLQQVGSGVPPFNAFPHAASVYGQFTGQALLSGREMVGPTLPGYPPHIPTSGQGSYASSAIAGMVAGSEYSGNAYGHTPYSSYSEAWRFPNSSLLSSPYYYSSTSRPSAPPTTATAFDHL

Compound: O=C(O)C1C(=O)NCC1c1ccccc1 (centres undefined)
- AC50 (Escherichia coli): 24.3 µM (active)

Compound: COc1cc(C(=O)N2CCN(c3cccc(C)c3C)CC2)cc(OC)c1OC
- EC50 (BJ [1]): 7.81 µM (inconclusive)
- EC50 (BJ [2]): 20.4 µM (active)
- EC50 [3]: 0.876 µM (active)
- EC50 [4]: 0.721 µM (active)
- EC50 (BJ [5]): 4.12 µM (active)
- EC50 [6]: 11.8 µM (inconclusive)
- IC50 [7]: > 80 µM (inactive)

Compound: CC(C)NC(=O)N1CCC2(CC1)CCN(C(=O)Oc1ccccc1)CC2
- AC50 (Cytochrome P450 3A4): inconclusive

Compound: C/N=c1\scc(-c2cccs2)n1/N=C/c1ccccc1O
- EC50 [8]: < 0.16 µM (active)
- IC50 [7]: > 80 µM (inactive)
- AC50 (Paired box protein Pax-8): < 0.26 µM (active)

Compound: Cc1nc2scc(-c3ccccc3)c2c(=O)n1/N=C/c1ccco1
- AC50 (Escherichia coli): 23.4 µM (active)

Compound: CCn1cc(C(=O)O)c(=O)c2cc(F)c(N3CCN(C(=O)Nc4ccccc4)CC3)cc21
- CC50 [9]: > 50 µM (active)
- IC50 [10]: 73.1 µM (inactive)
- IC50 (cells): 26.9 µM (active)

Compound: Cc1nn(Cc2ccc(Cl)cc2)c(C)c1NC(=O)c1ccc([N+](=O)[O-])cc1
- IC50 [11]: < 0.368 µM (active)
- EC50 [12]: > 53 µM (inactive)
- IC50 [13]: > 20 µM (inactive)
